Experimental findings from ChEMBL document CHEMBL1126075, “Chemistry and anti-HIV properties of 2'-fluoro-2',3'-dideoxyarabinofuranosylpyrimidines” (J Med Chem, 1992) are described below.

Data set [1] in a line: Partition coefficient (logP). The class given is physicochemical. The following applies: octanol/water.
Data set [2] can be described thus: Therapeutic index (IC50/EC50) was determined. The following applies: read-out: TI.
Data set [3] relates to ATH-8 cell line. Kind of data set: Percent protection of ATH8 cells from HIV-induced cytopathic effects at a concentration of 0.5 uM. The class given is functional, Homo sapiens.
Data set [4] concerns ATH-8 cell line. Kind of data set: Percent cytotoxicity against ATH8 cells at a concentration of 5 uM. The class given is functional. The following applies: Homo sapiens.
Data set [5] has as its system ATH-8 cell line. Kind of data set: Percent cytotoxicity against ATH8 cells at a concentration of 0.5 uM. Format: functional. The following applies: Homo sapiens.
Data set [6] relates to ATH-8 cell line. Kind of data set: Percent cytotoxicity against ATH8 cells at a concentration of 0.2 uM. The class given is functional. The following applies: Homo sapiens.
A further data set deals with CCRF-CEM. Kind of data set: Effect on HIV-induced cytopathogenesis in CEM cells. Format: functional, cell-based. The following applies: Homo sapiens.
For data set [7], the system named is ATH-8 cell line. Kind of data set: Percent protection of ATH8 cells from HIV-induced cytopathic effects at a concentration of 0.2 uM. Format: functional, Homo sapiens.
The subject of data set [8] is ATH-8 cell line. Kind of data set: Percent protection of ATH8 cells from HIV-induced cytopathic effects at a concentration of 1 uM. Format: functional, Homo sapiens.
Data set [9] has as its system ATH-8 cell line. Kind of data set: Percent cytotoxicity against ATH8 cells at a concentration of 1 uM. The following applies: Homo sapiens. Format: functional.
Data set [10] has as its system ATH-8 cell line. Kind of data set: Percent protection of ATH8 cells from HIV-induced cytopathic effects at a concentration of 5 uM. Format: functional, Homo sapiens.

For the compound `Nc1ccn([C@H]2C=C[C@@H](CO)O2)c(=O)n1`, the lipophilicity (logP) in data set [1] was -1.57.
On to `Cc1cn([C@@H]2O[C@H](CO)C[C@H]2F)c(=O)[nH]c1=O`, for which the logP in [1] was -0.44.
In the case of `Nc1ccn([C@@H]2O[C@H](CO)C[C@@H]2F)c(=O)n1`, the selectivity ratio in [2] is 39. In addition, the Protection with ATH-8 cell line [3] is recorded as 25%; in the data set with ATH-8 cell line [7] it was 3%; in the data set with ATH-8 cell line [8] it was 56%; with ATH-8 cell line [10], 53%. The same compound yielded a cytotoxicity at 5 µM with ATH-8 cell line [4] of 1%. This compound also displayed a cytotoxicity at 0.5 µM with ATH-8 cell line [5] of 8%. In addition, in the data set on ATH-8 cell line [6], the cytotoxicity at 0.2 µM was found to be 0%. The same compound came in with a 50% effective concentration (EC50) in the data set with CCRF-CEM of 1.1 µM. In the data set with CCRF-CEM, this compound yielded a half-maximal inhibitory concentration (IC50) of 43 µM. The logP in [1] was -1.18. The compound further displayed a cytotoxicity at 1 µM in the data set on ATH-8 cell line [9] of 4%.
In data set [1], `O=c1ccn(C2CCC(CO)O2)c(=O)[nH]1` (stereo not given) displayed a logP of -1.
Same read-out and setting: the figure for `Nc1nc(=O)n(C2OC(CO)CC2F)cc1Cl` (stereo not given) is -0.46.
On to `Nc1nc(=O)n([C@@H]2CC[C@H](CO)O2)cc1F`, for which the selectivity ratio in data set [2] is above 400. The Protection was found to be 96% in the data set with ATH-8 cell line [3], 71% with ATH-8 cell line [7], 100% in the data set with ATH-8 cell line [8] and 99% with ATH-8 cell line [10]. The compound further gave a cytotoxicity at 5 µM with ATH-8 cell line [4] of 4%. The same compound yielded a cytotoxicity at 0.5 µM in the data set with ATH-8 cell line [5] of 0%. Besides, the cytotoxicity at 0.2 µM with ATH-8 cell line [6] is 0%. The compound also came in with a 50% effective concentration (EC50) in the data set with CCRF-CEM of 0.1 µM. This compound also returned a concentration for half-maximal inhibition (IC50) with CCRF-CEM above 40 µM. The logP in data set [1] is -1.09. The cytotoxicity at 1 µM with ATH-8 cell line [9] stood at 1%.
Take `O=c1[nH]c(=O)n(C2OC(CO)CC2F)cc1F` (stereo not given): the lipophilicity (logP) in [1] is -0.72.
In the case of `Nc1nc(=O)n(C2OC(CO)CC2F)cc1F` (stereo not given), the selectivity ratio in data set [2] is above 10. Moreover, the Protection in the data set on ATH-8 cell line [3] was 8%; in the data set on ATH-8 cell line [7], 0%; in the data set with ATH-8 cell line [8] it was 7%; with ATH-8 cell line [10] it was 73%. Besides, the cytotoxicity at 5 µM in the data set with ATH-8 cell line [4] came out at 0%. The compound further had a cytotoxicity at 0.5 µM with ATH-8 cell line [5] of 0%. Moreover, the cytotoxicity at 0.2 µM in the data set with ATH-8 cell line [6] was found to be 0%. The compound also yielded an EC50 in the data set with CCRF-CEM of 57.7 µM. In addition, the IC50 in the data set with CCRF-CEM is above 580 µM. Further, the logP in data set [1] was -0.92. The compound further showed a cytotoxicity at 1 µM in the data set on ATH-8 cell line [9] of 8%.
In [1], `O=c1ccn(C2OC(CO)CC2F)c(=O)[nH]1` (stereo not given) gave a logP of -0.87.
Regarding `O=c1[nH]c(=O)n(C2OC(CO)CC2F)cc1Cl` (stereo not given), the lipophilicity (logP) in data set [1] is -0.28.
The same measure, in the same setting: the figure for `O=c1ccn([C@@H]2O[C@H](CO)[C@@H](O)[C@H]2O)c(=O)[nH]1` [URIDINE] is -1.94.
Regarding `Nc1ccn([C@H]2CC[C@@H](CO)O2)c(=O)n1` [ZALCITABINE], in data set [2], the selectivity ratio turned out to be 380. The Protection with ATH-8 cell line [3] is recorded as 100%; in the data set on ATH-8 cell line [7] it was 93%; in the data set with ATH-8 cell line [8], 100%; in the data set with ATH-8 cell line [10], 88%. The cytotoxicity at 5 µM with ATH-8 cell line [4] is 1%. The cytotoxicity at 0.5 µM in the data set on ATH-8 cell line [5] turned out to be 0%. This compound had a cytotoxicity at 0.2 µM in the data set with ATH-8 cell line [6] of 6%. The compound further gave an EC50 with CCRF-CEM of 0.3 µM. For the same compound, the IC50 in the data set with CCRF-CEM worked out at 120 µM. The cytotoxicity at 1 µM in the data set with ATH-8 cell line [9] stood at 9%.
